Assay results reported in ChEMBL document CHEMBL1201862, “PubChem BioAssay data set” (2004).
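Following 48 hours of exposure in 96-well plates, responses at five concentrations were used to interpolate endpoints linearly. GI50 = concentration required for 50% inhibition of growth.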 Activity calls are given as the source filed them. Rule as the data show it: active = GI50 up to about 1.1 µM and inactive = higher.

Key:
Assay in all cases: NCI-60 cell line screen, 48 h
OVCAR-3 = tested on: OVCAR-3
CAKI-1 = tested on: CAKI-1
RXF 393 = tested on: RXF 393
COLO 205 = tested on: COLO 205
NCI-H23 = tested on: NCI-H23
IGROV-1 = tested on: IGROV-1
BT-549 = tested on: BT-549
Hs-578T = tested on: Hs-578T
786-0 = tested on: 786-0
A498 = tested on: A498
LOX IMVI = tested on: LOX IMVI
MCF7 = tested on: MCF7
SK-MEL-5 = tested on: SK-MEL-5
MDA-N = tested on: MDA-N
M14 = tested on: M14
DU-145 = tested on: DU-145
UACC-62 = tested on: UACC-62
K562 = tested on: K562
SK-OV-3 = tested on: SK-OV-3
SK-MEL-28 = tested on: SK-MEL-28
SF-295 = tested on: SF-295
EKVX = tested on: EKVX
OVCAR-5 = tested on: OVCAR-5
MDA-MB-231 = tested on: MDA-MB-231
HCC 2998 = tested on: HCC 2998
SK-MEL-2 = tested on: SK-MEL-2
HCT-15 = tested on: HCT-15
UO-31 = tested on: UO-31
TK-10 = tested on: TK-10
SN12C = tested on: SN12C
UACC-257 = tested on: UACC-257
HOP-92 = tested on: HOP-92
HT-29 = tested on: HT-29
OVCAR-8 = tested on: OVCAR-8
HCT-116 = tested on: HCT-116
SF-539 = tested on: SF-539
A549 = tested on: A549
SNB-19 = tested on: SNB-19
MDA-MB-435 = tested on: MDA-MB-435
KM12 = tested on: KM12
MOLT-4 = tested on: MOLT-4
ACHN = tested on: ACHN
SNB-75 = tested on: SNB-75
OVCAR-4 = tested on: OVCAR-4
CCRF-CEM = tested on: CCRF-CEM
SW-620 = tested on: SW-620
RPMI-8226 = tested on: RPMI-8226
NCI-H522 = tested on: NCI-H522
PC-3 = tested on: PC-3
NCI-H460 = tested on: NCI-H460
SF-268 = tested on: SF-268
NCI/ADR-RES = tested on: NCI/ADR-RES
Malme-3M = tested on: Malme-3M
U-251 = tested on: U-251
HOP-62 = tested on: HOP-62
HL-60 = tested on: HL-60
T47D = tested on: T47D

Measured: GI50

N=C(N)NCCNC(=N)N
> 100 µM: HCT-15
inactive: OVCAR-3 > 100 µM | CAKI-1 > 100 µM | RXF 393 > 100 µM | COLO 205 > 100 µM | NCI-H23 > 100 µM | IGROV-1 > 100 µM | BT-549 > 100 µM | Hs-578T > 100 µM | 786-0 > 100 µM | A498 > 100 µM | LOX IMVI > 100 µM | MCF7 > 100 µM | SK-MEL-5 > 100 µM | MDA-N > 100 µM | M14 > 100 µM | DU-145 > 100 µM | UACC-62 > 100 µM | K562 > 100 µM | SK-OV-3 > 100 µM | SK-MEL-28 > 100 µM | SF-295 > 100 µM | EKVX > 100 µM | OVCAR-5 > 100 µM | MDA-MB-231 > 100 µM | HCC 2998 > 100 µM | SK-MEL-2 > 100 µM | UO-31 > 100 µM | TK-10 > 100 µM | SN12C 85.1 µM | UACC-257 > 100 µM | HOP-92 > 100 µM | HT-29 > 100 µM | OVCAR-8 > 100 µM | HCT-116 > 100 µM | SF-539 > 100 µM | A549 > 100 µM | SNB-19 > 100 µM | MDA-MB-435 > 100 µM | KM12 > 100 µM | MOLT-4 > 100 µM | ACHN > 100 µM | SNB-75 89.9 µM | OVCAR-4 > 100 µM | CCRF-CEM > 100 µM | SW-620 > 100 µM | RPMI-8226 > 100 µM | NCI-H522 > 100 µM | PC-3 > 100 µM | NCI-H460 > 100 µM | SF-268 > 100 µM | NCI/ADR-RES > 100 µM | Malme-3M 37.5 µM | U-251 > 100 µM | HOP-62 > 100 µM | HL-60 > 100 µM | T47D 84.3 µM
